Experimental data taken from ChEMBL document CHEMBL1909046, “DrugMatrix in vitro pharmacology data”.

Tests used:
Adenosine receptor A2a = Adenosine receptor A2a (Homo sapiens, UniProt P29274); assay: DRUGMATRIX: Adenosine A2A radioligand binding (ligand: […]); type: cell membranes, HEK293, Membrane; details: hek293; Not Active = under 50% inhibition at 10 µM
[1] = DRUGMATRIX: GABAA, Chloride Channel, TBOB radioligand binding (ligand: [3H] TBOB); type: cell membranes, Rattus norvegicus, Wistar, Cerebral cortex, Membrane; details: Not Active = under 50% inhibition at 10 µM
Endothelin-1 receptor = molecular target: T1, Endothelin-1 receptor (Homo sapiens, UniProt P25101); type: cell membranes, Membrane; details: cho-k1; also: in other assays of this panel Not Active means under 50% inhibition at 10 µM
T1 sequence (P25101 whole entry): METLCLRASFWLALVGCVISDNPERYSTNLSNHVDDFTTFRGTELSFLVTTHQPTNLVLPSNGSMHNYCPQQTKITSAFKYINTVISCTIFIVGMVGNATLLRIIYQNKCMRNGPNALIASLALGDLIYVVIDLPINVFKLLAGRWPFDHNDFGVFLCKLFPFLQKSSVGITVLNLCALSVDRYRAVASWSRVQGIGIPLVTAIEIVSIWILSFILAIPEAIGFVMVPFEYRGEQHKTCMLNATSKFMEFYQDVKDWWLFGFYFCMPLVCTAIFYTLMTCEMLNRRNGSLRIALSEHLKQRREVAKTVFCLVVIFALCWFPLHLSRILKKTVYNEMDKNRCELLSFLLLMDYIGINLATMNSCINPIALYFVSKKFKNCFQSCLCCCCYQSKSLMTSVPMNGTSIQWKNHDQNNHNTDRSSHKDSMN

[2] = molecular target: cGMP-specific 3',5'-cyclic phosphodiesterase (Homo sapiens, UniProt O76074); assay: DRUGMATRIX: Phosphodiesterase PDE5 enzyme inhibition (substrate: [3H]cGMP + cGMP); type: tissue-based, Platelet; details: Not Active = under 50% inhibition at 10 µM
[3] = molecular target: T2, Muscarinic acetylcholine receptor M5 (Homo sapiens, UniProt P08912); type: cell membranes, CHO-K1, Membrane; details: cho-k1; also: in other assays of this panel Not Active means under 50% inhibition at 10 µM
T2 sequence (P08912 whole entry): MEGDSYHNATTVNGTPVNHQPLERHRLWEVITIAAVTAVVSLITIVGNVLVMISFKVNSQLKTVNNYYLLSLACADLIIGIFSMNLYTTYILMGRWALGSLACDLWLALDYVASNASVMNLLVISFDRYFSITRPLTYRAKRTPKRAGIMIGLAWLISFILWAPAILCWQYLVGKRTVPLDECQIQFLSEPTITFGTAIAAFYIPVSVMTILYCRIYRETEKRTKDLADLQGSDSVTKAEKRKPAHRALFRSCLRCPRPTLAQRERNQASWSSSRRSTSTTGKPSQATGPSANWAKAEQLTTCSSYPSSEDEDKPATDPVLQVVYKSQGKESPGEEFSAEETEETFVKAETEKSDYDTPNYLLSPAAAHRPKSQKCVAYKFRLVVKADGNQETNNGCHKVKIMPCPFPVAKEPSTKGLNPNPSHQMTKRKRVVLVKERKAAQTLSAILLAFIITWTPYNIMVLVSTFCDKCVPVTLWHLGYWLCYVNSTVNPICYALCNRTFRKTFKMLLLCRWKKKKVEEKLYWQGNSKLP

Cannabinoid receptor 1 = Cannabinoid receptor 1 (Homo sapiens, UniProt P21554); type: cell membranes, Chem-1, Membrane; details: chem-1; also: in other assays of this panel Not Active means under 50% inhibition at 10 µM
[4] = molecular target: T3, Alpha-1D adrenergic receptor (Homo sapiens, UniProt P25100); type: cell membranes, HEK293, Membrane; details: hek293; also: in other assays of this panel Not Active means under 50% inhibition at 10 µM
T3 sequence (P25100 whole entry): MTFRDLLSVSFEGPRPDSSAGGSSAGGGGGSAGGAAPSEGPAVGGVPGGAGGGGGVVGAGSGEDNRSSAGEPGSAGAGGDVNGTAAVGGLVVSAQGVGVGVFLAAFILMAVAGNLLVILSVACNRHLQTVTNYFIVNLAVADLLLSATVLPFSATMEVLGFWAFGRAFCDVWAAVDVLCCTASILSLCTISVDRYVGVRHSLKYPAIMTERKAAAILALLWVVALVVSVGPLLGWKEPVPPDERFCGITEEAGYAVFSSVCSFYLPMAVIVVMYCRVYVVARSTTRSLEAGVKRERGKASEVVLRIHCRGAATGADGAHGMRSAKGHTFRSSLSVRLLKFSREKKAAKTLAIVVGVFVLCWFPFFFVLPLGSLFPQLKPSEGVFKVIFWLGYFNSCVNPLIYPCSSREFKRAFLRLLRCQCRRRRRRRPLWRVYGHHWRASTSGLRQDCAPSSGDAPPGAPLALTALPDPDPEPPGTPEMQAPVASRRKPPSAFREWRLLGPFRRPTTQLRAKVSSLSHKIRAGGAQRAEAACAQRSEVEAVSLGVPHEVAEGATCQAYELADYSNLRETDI

Sequence of Adenosine receptor A2a (P29274 whole entry): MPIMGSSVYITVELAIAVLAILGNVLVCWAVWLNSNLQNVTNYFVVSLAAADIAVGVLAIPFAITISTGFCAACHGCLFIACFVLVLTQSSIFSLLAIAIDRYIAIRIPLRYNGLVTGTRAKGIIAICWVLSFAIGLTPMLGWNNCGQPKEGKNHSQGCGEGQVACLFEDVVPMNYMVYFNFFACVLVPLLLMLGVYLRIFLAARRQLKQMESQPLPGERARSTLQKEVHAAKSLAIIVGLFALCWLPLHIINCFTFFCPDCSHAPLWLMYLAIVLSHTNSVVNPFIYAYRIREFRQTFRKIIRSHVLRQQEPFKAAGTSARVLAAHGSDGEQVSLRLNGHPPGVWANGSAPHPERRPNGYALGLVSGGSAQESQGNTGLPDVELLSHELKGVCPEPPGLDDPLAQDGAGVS
Sequence of Cannabinoid receptor 1 (P21554 whole entry): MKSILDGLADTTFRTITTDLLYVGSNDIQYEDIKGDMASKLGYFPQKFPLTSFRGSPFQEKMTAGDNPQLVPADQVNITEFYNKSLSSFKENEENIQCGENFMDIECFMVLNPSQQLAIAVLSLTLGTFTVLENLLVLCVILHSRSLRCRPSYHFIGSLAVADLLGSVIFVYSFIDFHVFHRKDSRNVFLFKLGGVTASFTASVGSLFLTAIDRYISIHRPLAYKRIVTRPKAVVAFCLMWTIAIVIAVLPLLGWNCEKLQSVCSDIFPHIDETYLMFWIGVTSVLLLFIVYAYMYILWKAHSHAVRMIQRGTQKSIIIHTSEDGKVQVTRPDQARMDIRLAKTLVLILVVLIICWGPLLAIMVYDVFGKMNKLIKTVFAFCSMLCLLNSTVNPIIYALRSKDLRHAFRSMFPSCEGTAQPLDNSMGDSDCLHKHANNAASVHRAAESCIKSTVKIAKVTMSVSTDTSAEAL

| Compound | IC50 (Adenosine receptor A2a) | IC50 [1] | Ki [1] | IC50 (Endothelin-1 receptor) | IC50 ([2]; platelet) | IC50 [3] | IC50 (Cannabinoid receptor 1) | IC50 [4] | Ki (Adenosine receptor A2a) | Ki (Endothelin-1 receptor) | Ki ([2]; platelet) | Ki [3] | Ki (Cannabinoid receptor 1) | Ki [4] | IC50 ([2]; read-out: IC50) |
| --- | --- | --- | --- | --- | --- | --- | --- | --- | --- | --- | --- | --- | --- | --- | --- |
| CC(=O)O[C@]1(C(C)=O)CC[C@H]2[C@@H]3C[C@H](C)C4=CC(=O)CC[C@]4(C)[C@H]3CC[C@@]21C [MEDROXYPROGESTERONE ACETATE] | Not Active | Not Active | Not Active | Not Active | Not Active | Not Active | Not Active | Not Active |  |  |  |  |  |  |  |
| CCN1CCCC1CNC(=O)c1cc(S(N)(=O)=O)ccc1OC (stereo not given) [SULPIRIDE] | Not Active | Not Active | Not Active | Not Active | Not Active | Not Active | Not Active | Not Active |  |  |  |  |  |  |  |
| CC(O)C(=O)O (stereo not given) [LACTIC ACID] | Not Active | Not Active | Not Active | Not Active | Not Active | Not Active | Not Active | Not Active |  |  |  |  |  |  |  |
| CC(Cl)(Cl)Cl [TRICHLOROETHANE] | Not Active | Not Active | Not Active | Not Active | Not Active | Not Active | Not Active | Not Active |  |  |  |  |  |  |  |
| CCC(C)(C)C(=O)O[C@H]1C[C@@H](C)C=C2C=C[C@H](C)[C@H](CC[C@@H]3C[C@@H](O)CC(=O)O3)[C@H]21 [SIMVASTATIN] | Not Active | Not Active | Not Active | Not Active | Not Active | Not Active | Not Active | Not Active |  |  |  |  |  |  |  |
| Cc1ccnc(NS(=O)(=O)c2ccc(N)cc2)n1 [SULFAMERAZINE] | Not Active | Not Active | Not Active | Not Active | Not Active | Not Active | Not Active | Not Active |  |  |  |  |  |  |  |
| CCN(CC)N=O [N-NITROSODIETHYLAMINE] | Not Active | Not Active | Not Active | Not Active | Not Active | Not Active | Not Active | Not Active |  |  |  |  |  |  |  |
| CC#C[C@]1(O)CC[C@H]2[C@@H]3CCC4=CC(=O)CCC4=C3[C@@H](c3ccc(N(C)C)cc3)C[C@@]21C [MIFEPRISTONE] | Not Active | Not Active | Not Active | Not Active | Not Active | Not Active | Not Active | Not Active |  |  |  |  |  |  |  |
| LEAD(IV) ACETATE | Not Active | Not Active | Not Active | Not Active | Not Active | Not Active | Not Active | Not Active | Not Active | Not Active | Not Active | Not Active | Not Active | Not Active |  |
| O=C(OC[C@H]1O[C@@H](OC(=O)c2cc(O)c(O)c(OC(=O)c3cc(O)c(O)c(O)c3)c2)[C@H](OC(=O)c2cc(O)c(O)c(OC(=O)c3cc(O)c(O)c(O)c3)c2)[C@@H](OC(=O)c2cc(O)c(O)c(OC(=O)c3cc(O)c(O)c(O)c3)c2)[C@@H]1OC(=O)c1cc(O)c(O)c(OC(=O)c2cc(O)c(O)c(O)c2)c1)c1cc(O)c(O)c(OC(=O)c2cc(O)c(O)c(O)c2)c1 [TANNIC ACID] | Not Active | Not Active | Not Active | Not Active |  | Not Active | Not Active | Not Active |  |  |  |  |  |  | 4.7 µM |
| Oc1ccc(/C=C/c2cc(O)cc(O)c2)cc1 [RESVERATROL] | Not Active | Not Active | Not Active | Not Active | Not Active | Not Active | Not Active | Not Active |  |  |  |  |  |  |  |
| CC[C@@]1(O)C(=O)OCc2c1cc1n(c2=O)Cc2cc3c(CN(C)C)c(O)ccc3nc2-1 [TOPOTECAN] | Not Active | Not Active | Not Active | Not Active | Not Active | Not Active | Not Active | Not Active |  |  |  |  |  |  |  |
| C=CCc1ccc2c(c1)OCO2 [SAFROLE] | Not Active | Not Active | Not Active | Not Active | Not Active | Not Active | Not Active | Not Active |  |  |  |  |  |  |  |
| C1CCN2C[C@@H]3C[C@@H](CN4CCCC[C@@H]34)[C@H]2C1 [SPARTEINE] | Not Active | Not Active | Not Active | Not Active | Not Active | Not Active | Not Active | Not Active |  |  |  |  |  |  |  |
| CC[C@H](C)C(=O)O[C@H]1CCC=C2C=C[C@H](C)[C@H](CC[C@@H]3C[C@@H](O)CC(=O)O3)[C@H]21 [MEVASTATIN] | Not Active | Not Active | Not Active | Not Active | Not Active | Not Active | Not Active | Not Active |  |  |  |  |  |  |  |
| CS(=O)(=O)c1ccc(C2=C(c3ccccc3)C(=O)OC2)cc1 [ROFECOXIB] | Not Active | Not Active | Not Active | Not Active | Not Active | Not Active | Not Active | Not Active |  |  |  |  |  |  |  |
| Cc1cn([C@H]2C=C[C@@H](CO)O2)c(=O)[nH]c1=O [STAVUDINE] | Not Active | Not Active | Not Active | Not Active | Not Active | Not Active | Not Active | Not Active |  |  |  |  |  |  |  |
| Nc1nc(N)c2nc(-c3ccccc3)c(N)nc2n1 | Not Active | Not Active | Not Active | Not Active | Not Active | Not Active | Not Active | Not Active |  |  |  |  |  |  |  |
| Cc1[nH]c(=O)c(C#N)cc1-c1ccncc1 [MILRINONE] | Not Active | Not Active | Not Active | Not Active | Not Active | Not Active | Not Active | Not Active |  |  |  |  |  |  |  |
| C[C@]12CCC(=O)C[C@@H]1CC[C@@H]1[C@@H]2CC[C@]2(C)[C@@H](O)CC[C@@H]12 [STANOLONE] | Not Active | Not Active | Not Active | Not Active | Not Active | Not Active | Not Active | Not Active |  |  |  |  |  |  |  |
| CC1(C)[C@H](C(=O)O)N2C(=O)C[C@H]2S1(=O)=O [SULBACTAM] | Not Active | Not Active | Not Active | Not Active | Not Active | Not Active | Not Active | Not Active |  |  |  |  |  |  |  |
| CCOC(=O)C1=C(C)NC(C)=C(C(=O)OCC)C1c1ccccc1/C=C/C(=O)OC(C)(C)C [LACIDIPINE] | Not Active | Not Active | Not Active | Not Active | Not Active | Not Active | Not Active | Not Active |  |  |  |  |  |  |  |
| CC(N)C12CC3CC(CC(C3)C1)C2 (stereo not given) [RIMANTADINE] | Not Active | Not Active | Not Active | Not Active | Not Active | Not Active | Not Active | Not Active |  |  |  |  |  |  |  |
